Assay results taken from the supplement of paper PMC4862054.

Key:
Conditions in all cases: incubation time: 72 h
[1] = test system: MDA-MB-231; experiment: normalised response (% of control), CellTiter-Glo; higher = more viable cells (100 = DMSO, 0 = benzethonium chloride kill control)
Description: (§1)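 DSRT, 72 h incubation, CellTox Green / CellTiter-Glo readout. Signal is normalised to DMSO and benzethonium chloride controls. Value is the normalised response at the highest dose.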

[2] = test system: CAL-51; experiment: as above
Description: as §1

[3] = test system: MFM-223; experiment: as above
Description: as §1

[4] = test system: HDQ-P1; experiment: as above
Description: as §1

[5] = test system: MCF-10A; experiment: as above
Description: as §1

[6] = test system: CAL-120; experiment: as above
Description: as §1

[7] = test system: BT-549; experiment: as above
Description: as §1

[8] = test system: CAL-148; experiment: as above
Description: as §1

[9] = test system: HCC1937; experiment: as above
Description: as §1

[10] = test system: BT-474; experiment: as above
Description: as §1

[11] = test system: HCC1599; experiment: as above
Description: as §1

[12] = test system: MDA-MB-436; experiment: as above
Description: as §1

[13] = test system: HCC1143; experiment: as above
Description: as §1

[14] = test system: DU-4475; experiment: as above
Description: as §1

[15] = test system: Hs578T; experiment: as above
Description: as §1

[16] = test system: SK-BR-3; experiment: as above
Description: as §1

[17] = test system: CAL-85-1; experiment: as above
Description: as §1

[18] = test system: MDA-MB-453; experiment: as above
Description: as §1

[19] = test system: MDA-MB-468; experiment: as above
Description: as §1

[20] = test system: MDA-MB-231; experiment: normalised response (% of control), CellTox Green; higher = less cell death (100 = DMSO, 0 = benzethonium chloride kill control)
Procedure, shortened: (§2)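 For each plate, 0.1 % DMSO was set to 100 and a positive kill control to 0. Breast cancer cell lines (20 µl suspension) were seeded into 384-well plates already holding compound at 5 concentrations in 10-fold steps over a 10,000-fold range chosen per compound, and incubated for 72 h. CellTox Green fluorescence at 485/520 nm was read before CellTiter-Glo luminescence, which followed 10 min at room temperature. Each value is the normalised signal at one concentration.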

[21] = test system: CAL-51; experiment: as above
Procedure, shortened: as §2

[22] = test system: MFM-223; experiment: as above
Procedure, shortened: as §2

[23] = test system: HDQ-P1; experiment: as above
Procedure, shortened: as §2

[24] = test system: MCF-10A; experiment: as above
Procedure, shortened: as §2

[25] = test system: CAL-120; experiment: as above
Procedure, shortened: as §2

[26] = test system: BT-549; experiment: as above
Procedure, shortened: as §2

[27] = test system: CAL-148; experiment: as above
Procedure, shortened: as §2

[28] = test system: HCC1937; experiment: as above
Procedure, shortened: as §2

[29] = test system: BT-474; experiment: as above
Procedure, shortened: as §2

[30] = test system: HCC1599; experiment: as above
Procedure, shortened: as §2

[31] = test system: MDA-MB-436; experiment: as above
Procedure, shortened: as §2

[32] = test system: HCC1143; experiment: as above
Procedure, shortened: as §2

[33] = test system: DU-4475; experiment: as above
Procedure, shortened: as §2

[34] = test system: Hs578T; experiment: as above
Procedure, shortened: as §2

[35] = test system: CAL-85-1; experiment: as above
Procedure, shortened: as §2

[36] = test system: MDA-MB-453; experiment: as above
Procedure, shortened: as §2

[37] = test system: MDA-MB-468; experiment: as above
Procedure, shortened: as §2

SMILES | normalised response [1] [%] | normalised response [2] [%] | normalised response [3] [%] | normalised response [4] [%] | normalised response [5] [%] | normalised response [6] [%] | normalised response [7] [%] | normalised response [8] [%] | normalised response [9] [%] | normalised response [10] [%] | normalised response [11] [%] | normalised response [12] [%] | normalised response [13] [%] | normalised response [14] [%] | normalised response [15] [%] | normalised response [16] [%] | normalised response [17] [%] | normalised response [18] [%] | normalised response [19] [%] | normalised response [20] [%] | normalised response [21] [%] | normalised response [22] [%] | normalised response [23] [%] | normalised response [24] [%] | normalised response [25] [%] | normalised response [26] [%] | normalised response [27] [%] | normalised response [28] [%] | normalised response [29] [%] | normalised response [30] [%] | normalised response [31] [%] | normalised response [32] [%] | normalised response [33] [%] | normalised response [34] [%] | normalised response [35] [%] | normalised response [36] [%] | normalised response [37] [%]
Cn1c(=O)n(-c2ccc(C(C)(C)C#N)cc2)c2c3cc(-c4cnc5ccccc5c4)ccc3ncc21 [Dactolisib] (1000 nM) | 51.3 | 23.5 | 42.3 | 52.4 | 52.3 | 26.2 | 25.9 | 33.1 | 58 | 61.8 | 82 | 57 | 37.5 | 30.4 | 33.9 | 27.2 | 43 | 37.9 | 31.5 | 126 | 81.3 | 28.8 | 115 | 87.3 | 104 | 112 | -65 | 45.6 | 101 | 107 | 112 | 130 | 102 | 101 | 64.6 | 104 | 170
CN(C)CCN1C(=O)c2cccc3cc(N)cc(c23)C1=O [Amonafide] (10000 nM) | 39.2 | 17.7 | 69.7 | 53.1 | 45 | 52.3 | 47 | 25.4 | 55.7 | 43.9 | 57.2 | 38.8 | 52.3 | 14.6 | 61.7 | 31.9 | 47.6 | 77.8 | 43.5 | 111 | 23.1 | 100 | 87 | 77 | 101 | 122 | 32.8 | 120 | 97.8 | 98 | 63.8 | 93.5 | 83.8 | 114 | 63.4 | 112 | 125
Cn1cncc1[C@@](N)(c1ccc(Cl)cc1)c1ccc2c(c1)c(-c1cccc(Cl)c1)cc(=O)n2C [Tipifarnib] (10000 nM) | 73.8 | 59.1 | 39.6 | 60.2 | 74.3 | 63.4 | 40.3 | 54.7 | 53.1 | 53.9 | 40.6 | 34.7 | 49.6 | 46.9 | 49.6 | 33.5 | 61.5 | 63.7 | 31.8 | 57.5 | 84 | 75.5 | 69.9 | 92.6 | 81 | 90.4 | 89.5 | 72.2 | 75.5 | 98 | 81.1 | 98.7 | 85.6 | 101 | 75.2 | 92.4 | 88.8
CN(C)C[C@@H]1CCn2cc(c3ccccc32)C2=C(C(=O)NC2=O)c2cn(c3ccccc23)CCO1 [Ruboxistaurin] (10000 nM) | 0.34 | 7.88 | 34.9 | 35 | 42.6 | 55.2 | 10.1 | 0.12 | 38.5 | 4.02 | 78.9 | 3.33 | 48.1 | 62.1 | 70.6 | -0.11 | 1.43 | 0.01 | 1.42 | -85 | -50.2 | 73.5 | 26.2 | 54.2 | 76.3 | 30.4 | 10.5 | 33 | -10.6 | 91.6 | -6.73 | 103 | 92.1 | 62.9 | -82.9 | 9.28 | -88
CO[C@H]1C[C@@H]2CC[C@@H](C)[C@@](O)(O2)C(=O)C(=O)N2CCCC[C@H]2C(=O)O[C@H]([C@H](C)C[C@@H]2CC[C@@H](OCCO)[C@H](OC)C2)CC(=O)[C@H](C)/C=C(\C)[C@@H](O)[C@@H](OC)C(=O)[C@H](C)C[C@H](C)/C=C/C=C/C=C/1C [Everolimus] (100 nM) | 87.9 | 64.3 | 61.6 | 72.9 | 80.9 | 63.5 | 61 | 53.4 | 66.1 | 77.6 | 104 | 75.5 | 61.5 | 63.7 | 65.1 | 49.5 | 63.1 | 51.5 | 57.5 | 111 | 98.1 | 53.1 | 109 | 92.9 | 99.3 | 100 | 92.5 | 88.6 | 100 | 95.8 | 99.7 | 66.4 | 95.4 | 79.6 | 122 | 104 | 158
COc1ccc(-c2ccc3c(N4CCOC[C@@H]4C)nc(N4CCOC[C@@H]4C)nc3n2)cc1CO [AZD8055] (10000 nM) | 33.5 | 15.9 | 26.4 | 29 | 21.4 | 18.8 | 19.9 | 14.6 | 38.3 | 42.5 | 77.3 | 46.4 | 25.3 | 15.3 | 22.4 | 18.2 | 27.6 | 27.2 | 21 | 97.3 | 76.6 | 83.7 | 99.7 | 76.3 | 102 | 111 | 56.6 | 97.3 | 48 | 86.4 | 68.7 | -36.9 | 82.6 | 94.8 | 88.1 | 92.3 | 27.8
Nc1nc(OCc2cc(Br)cs2)c2[nH]cnc2n1 [Lomeguatrib] (10000 nM) | 98.5 | 67.2 | 91.8 | 96.5 | 97.4 | 101 | 93.5 | 101 | 103 | 98.9 | 106 | 90.6 | 94.5 | 102 | 98.7 | 93.9 | 97 | 91.3 | 87.1 | 112 | 89.2 | 98.5 | 104 | 75.2 | 104 | 96.6 | 69.2 |  | 95.9 | 99.2 | 94.1 | 98 | 97.9 | 108 | 114 | 92.8 | 161
CC(C)(C#N)c1cc(Cn2cncn2)cc(C(C)(C)C#N)c1 [Anastrozole] (10000 nM) | 99.9 | 98.6 | 103 | 100 | 101 | 98.3 | 102 | 104 | 101 | 97.5 | 99.8 | 96 | 102 | 103 | 100 | 108 | 104 | 108 | 105 |  | 100 | 89.5 | 105 | 105 | 99.1 | 98.8 | 105 | 69.8 | 93 | 106 | 107 |  | 95.3 | 77.6 | 92.9 | 88 | 116
